Data reported in patent US10071077B2, “Use of enoximone in the treatment of atopic immune-related disorders, in pharmaceutical composition as well as in pharmaceutical preparation” (BREAKTHROUGH MEDICAL RESEARCH B.V., priority 2014, dated 2018).

How the values were obtained:
[1] = tested on: HDM driven allergic airway inflammation; assay: House dust mite (HDM) allergic airway inflammation model, treatment strategy 1 (allergy induction); assay type: in vivo, C57bl/6 mice
Experimental: (§1) To induce airway inflammation, mice were anaesthetized with isofluorane and treated intratracheally (i.t.) with 1-10 μg house dust mite (HDM; Greer Laboratories) allergen extract in 80 μL phosphate buffered saline (PBS) on day 0 or using PBS only. Ten days later, anesthetized mice were challenged with 1-10 μg HDM in 50 μL PBS intranasally (i.n.) for 5 consecutive days. Mice were sacrificed 24 hr after last challenge and broncho alveolar lavage was performed by flushing the lungs 3 times with 1 ml PBS containing Ethylenediaminetetraacetic acid (EDTA, Sigma-Aldrich).
Different treatment modalities were testes i.e. route and dose. Here we tested the oral versus intratracheal route (FIG. 1) and PBS versus enoximone in a HDM driven allergy model. Enoximone was precipitated from Perfan®. The precipitant was admitted with HDM solution and used as a suspension for intratracheal treatment doses 25 μg and 250 μg or it was used as a suspension admitted in PBS for oral treatment doses 250 μg or 2.5 mg. Mice underwent enoximone treatment only during challenge. Sensitization was performed with 1 μg HDM and challenge with 2.5-5 μg HDM. Twenty-four hours after the last challenge measurements were performed.
Optimal dose of 25 μg enoximone versus diluent (FIG. 5) was admitted with 5 μg HDM solution and used for intratracheal treatment or diluent (10% ethanol+40% glycerol+50% MQ) admitted with 5 μg HDM solution. Controls were treated with enoximone 25 μg admitted with PBS or diluent admitted with PBS. Mice underwent enoximone treatment only during challenge.
(A) Experimental HDM asthma design showing intratracheal sensitization (s) of 1 μg HDM or PBS as control and five intra-nasal challenges (c) with 2.5-5 μg HDM. (B) Quantification of flow cytometric analyses of the indicated populations of eosinophils in bronchoalveolar lavage (BAL) of PBS treated mice (black bars) and enoximone treated mice (white and greyscale bars). Results are expressed as means±SEM. (C) Quantification of flow cytometric analyses of ILC2 numbers in BAL. Results are expressed as means±SEM. Results represent data of one out of 2 experiments with 3-8 animals per group. Statistical evaluations were performed only between different treatments of groups. *p<0.05, **p<0.01).
(§2) (A) Experimental HDM asthma design showing intratracheal sensitization (s) of 1 μg HDM or PBS as control and intra nasal challenge (c) with 5 μg HDM. (B) Quantification of flow cytometric analyses of eosinophils in BAL of PBS treated mice (black bars) and enoximone treated mice (light grey bars). Results are expressed as means±SEM. (C) Quantification of flow cytometric analyses of neutrophils and (D) ILC2s in BAL. Results are expressed as means±SEM. n=4-8 animals per group. Statistical evaluations were performed only between different treatments of groups (*p<0.05 or **p<0.01).

[2] = tested on: established HDM allergic airway inflammation; assay: Established HDM allergy model, treatment strategy 2; assay type: in vivo, C57bl/6 mice; settings: 25 μg enoximone admixed with 5 μg HDM
Experimental: as §1
C57bl/6 mice were sensitized with 10 μg HDM on day 0 and challenged with 5 μg HDM for 5 days on day 10-14. Then mice were treated with 5 μg HDM admixed with 25 μg enoximone or diluent for 5 days on days 15-19. 24 hr after last challenge measurements were performed.
Next, we attempted to determine whether enoximone is potent enough to suppress allergic inflammation when asthma is already fully established. Animals were challenged with an additional session of 5 challenges with HDM mimicking the situation in asthma patients. Asthma mice and PBS controls were then challenged again on five successive days by instilling a droplet of 50 μl PBS (PBS PBS dil), or HDM (5 μg) in 50 μl PBS (HDM HDM dil) or HDM (5 μg) in 50 μl PBS admixed with enoximone (25 μg) (HDM HDM enox)(FIG. 7A).
as §2, with “[…]” for “1 μg”, “HDM followed by challenge and treatment (ct).” for “HDM.”, “ILC2s, (D) CD3” for “neutrophils”, “(E) macrophages” for “(D) ILC2s”, “groups.” for “groups”

[3] = tested on: Human PBMCs stimulated with tetanus toxoid (CD4 T-cells); assay type: cell-based
[4] = tested on: Human basophils stimulated with anti IgE; assay: Basophil degranulation assay; assay type: cell-based; settings: anti IgE stimulation
Experimental: PBMCs including basophils were treated with diluent or several doses of enoximone at 37° C. for half an hour. Next the cells were washed and incubated with anti IgE antibodies 5 µg/ml for 20 minutes at 37° C. for 20 minutes washed again at 4° C. and consequently stained for flowcytometric with CD123-BV650, CD203c-PE, CD107a-FITC, HLA-DR-PerCPCy5.5 and FcεRI-APC at 4° C. for 30 minutes. Cells were acquire with a LSRII and analyzed with Flowjo X. Basophils were identified as FcεRI+, CD123+ and HLA-DR− cells. Degranulated and/or activated basophils stained positive for CD203c and CD107a. 100% degranulated basophils were set as the % of degranulated basophils treated with diluent and stimulated with 5 µg/ml anti IgE. Proportion of inhibition was calculated as % of degranulated basophils divided by the maximal % of diluent treated degranulated basophils.
FIG. 4 Human PBMCs including basophils were treated with diluent or several doses of enoximone and cells were activated by incubation with anti IgE antibodies. Data plotted show the mean proportion of inhibition was calculated as % degranulated basophils (CD123^+FceRI^+HLA-DR^− CD107a^+CD203c^+ cells) pretreated with enoximone divided by % of diluent treated degranulated basophils (n=3).

[5] = metabolised to a less active sulfoxide, excreted via the kidneys; cited from earlier work
[6] = tested on: HDM driven allergic airway inflammation; assay: House dust mite (HDM) allergic airway inflammation model, treatment strategy 1 (allergy induction); assay type: in vivo, C57bl/6 mice; settings: orally (2.5 and 0.25 μg), treatment during challenge, FIG. 5B
[7] = oral or intratracheal enoximone

CSc1ccc(C(=O)c2[nH]c(=O)[nH]c2C)cc1 [enoximone, 1,3-dihydro-4-methyl-5-[4-(methylthio)benzoyl]-2H-imidazol-2-on]
neutrophil numbers in BAL ([1]; 25 μg enoximone intratracheally, FIG. 6C, same pattern as eosinophils): the same dynamic is observed
ILC2 cell numbers in BAL ([1]; 25 μg enoximone intratracheally, FIG. 6D, same pattern as eosinophils): the same dynamic is observed
numbers of BAL eosinophils, HDM/diluent treated mice compared to enoximone treated mice ([1]; 25 μg enoximone solution admitted to 5 μg HDM, intratracheally, FIG. 6B): significantly higher
allergic airway inflammation in control mice ([1]; PBS/enoximone (25 μg) control mice, no HDM): no signs of allergic airway inflammation
eosinophilic airway inflammation in control mice ([1]; PBS/enoximone control mice, no HDM): no eosinophilic airway inflammation
eosinophil numbers in BAL, HDM/PBS treated mice compared to enoximone treated mice ([1]; intratracheally (25 and 250 μg), treatment during challenge, FIG. 5B): significantly higher
DCs, PBS treated allergy mice compared to enoximone treated mice [1, 7]: significantly higher in the PBS treated allergy mice
Neutrophils, PBS treated allergy mice compared to enoximone treated mice [1, 7]: significantly higher in the PBS treated allergy mice
T-cells, PBS treated allergy mice compared to enoximone treated mice [1, 7]: significantly higher in the PBS treated allergy mice
ILC2 numbers in BAL ([1]; oral or intratracheal enoximone, FIG. 5C): reduced
numbers of ILC2s in BAL ([2]; days 15-19, FIG. 7C): significant reduction
numbers of T-cells in BAL ([2]; days 15-19, FIG. 7D): significant reduction
numbers of macrophages in BAL ([2]; days 15-19, FIG. 7E): significant reduction
eosinophil numbers in BAL ([2]; days 15-19, started after the first 5 HDM challenges, FIG. 7B): strong significant reductions
proliferation of CD4 positive T-cells (proportion of divided CD4 T-cells) [3]: significantly reduced
inhibition at 20 µM ([4]; Homo sapiens, 20 μM enoximone, FIG. 4, read-out: inhibition of basophil activation/degranulation (CD107a and CD203c positivity)): > 50%
inhibition at 1000 µM ([4]; Homo sapiens, 1000 μM enoximone, FIG. 4, read-out: inhibition of basophil activation/degranulation (CD107a and CD203c positivity)): > 90%
basophil activation (CD107a and CD203c positivity) ([4]; enoximone 20-1000 μM): reduced basophil activation
half life [5]: approximately 4 hours
eosinophil numbers in BAL, HDM/PBS treated mice compared to enoximone treated mice [6]: significantly higher
